# Key:
# [1] = target: Serine/threonine-protein kinase Nek6 (Homo sapiens) (UniProt Q9HC98); experiment: Inhibition of wild-type human full length NEK6 (M8 to T313 residues) expressed in bacterial expression system assessed as residual activity at 1 uM by Kinomescan method relative to control
# [2] = target: Protein kinase C zeta type (Homo sapiens) (UniProt Q05513); experiment: Inhibition of PKCzeta (unknown origin) assessed as residual activity at 1 uM by Kinomescan method relative to control
# [3] = target: Serine/threonine-protein kinase PAK 1 (Homo sapiens) (UniProt Q13153); experiment: Inhibition of wild-type human partial length PAK1 (S149 to H545 residues) expressed in bacterial expression system assessed as residual activity at 1 uM by Kinomescan method relative to control
# [4] = target: PAS domain-containing serine/threonine-protein kinase (Homo sapiens) (UniProt Q96RG2); experiment: Inhibition of wild-type human partial length PASK (E942 to G1265 residues) expressed in mammalian expression system assessed as residual activity at 1 uM by Kinomescan method relative to control
# Chain of PAS domain-containing serine/threonine-protein kinase (Homo sapiens) (Q96RG2 whole entry, the tested form may be a part): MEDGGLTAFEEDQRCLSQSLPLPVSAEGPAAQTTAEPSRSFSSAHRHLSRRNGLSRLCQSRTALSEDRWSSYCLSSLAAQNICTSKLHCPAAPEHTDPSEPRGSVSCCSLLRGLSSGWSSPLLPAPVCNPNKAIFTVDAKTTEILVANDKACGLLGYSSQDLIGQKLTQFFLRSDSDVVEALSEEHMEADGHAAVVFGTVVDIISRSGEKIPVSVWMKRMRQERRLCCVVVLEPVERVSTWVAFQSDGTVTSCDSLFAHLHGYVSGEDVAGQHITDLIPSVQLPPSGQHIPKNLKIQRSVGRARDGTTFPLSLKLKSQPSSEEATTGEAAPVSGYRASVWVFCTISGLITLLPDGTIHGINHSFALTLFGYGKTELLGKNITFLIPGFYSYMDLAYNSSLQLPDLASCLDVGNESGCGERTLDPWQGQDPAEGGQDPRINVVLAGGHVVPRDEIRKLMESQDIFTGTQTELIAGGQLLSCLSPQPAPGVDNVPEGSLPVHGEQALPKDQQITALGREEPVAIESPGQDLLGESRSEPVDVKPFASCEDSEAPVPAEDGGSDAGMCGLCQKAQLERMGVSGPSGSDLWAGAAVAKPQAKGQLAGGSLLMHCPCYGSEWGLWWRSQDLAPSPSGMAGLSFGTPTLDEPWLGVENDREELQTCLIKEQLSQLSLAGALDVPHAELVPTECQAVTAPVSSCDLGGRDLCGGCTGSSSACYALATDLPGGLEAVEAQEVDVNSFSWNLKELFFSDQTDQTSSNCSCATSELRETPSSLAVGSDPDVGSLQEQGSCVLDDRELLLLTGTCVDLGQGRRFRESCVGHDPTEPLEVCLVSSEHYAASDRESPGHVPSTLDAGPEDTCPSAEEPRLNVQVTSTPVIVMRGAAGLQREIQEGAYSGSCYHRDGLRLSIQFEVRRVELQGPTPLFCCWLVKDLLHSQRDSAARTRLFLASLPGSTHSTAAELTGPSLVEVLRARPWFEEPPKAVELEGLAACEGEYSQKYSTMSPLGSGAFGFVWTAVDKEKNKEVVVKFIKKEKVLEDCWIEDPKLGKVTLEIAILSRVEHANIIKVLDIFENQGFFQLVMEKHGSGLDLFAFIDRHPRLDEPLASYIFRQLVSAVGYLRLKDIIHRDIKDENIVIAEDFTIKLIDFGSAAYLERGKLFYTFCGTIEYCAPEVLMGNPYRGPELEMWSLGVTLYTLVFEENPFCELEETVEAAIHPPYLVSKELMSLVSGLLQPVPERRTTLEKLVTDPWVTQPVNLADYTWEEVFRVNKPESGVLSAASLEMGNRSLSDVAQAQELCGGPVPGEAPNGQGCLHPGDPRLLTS
# [5] = target: Dual specificity tyrosine-phosphorylation-regulated kinase 3 (Homo sapiens) (UniProt O43781); experiment: Inhibition of DYRK3 (unknown origin) assessed as residual activity at 1 uM by Kinomescan method relative to control
# [6] = In vivo inhibition of LRRK2 in C57BL6 mouse assessed as reduction in Ser935 phosphorylation in kidney at 45 mg/kg, po after 1 hr by Western blot analysis; assay type: functional; set-up: scale not given: the % may be the effect or the level left
# [7] = target: CDK6/cyclin D1 (Homo sapiens) (UniProt P24385+Q00534); experiment: Inhibition of wild-type human full length CDK6 (M1 to A326 residues)/cyclin D1 expressed in mammalian expression system assessed as residual activity at 1 uM by Kinomescan method relative to control
# [8] = target: MAP kinase-interacting serine/threonine-protein kinase 1 (Homo sapiens) (UniProt Q9BUB5); experiment: Inhibition of MNK1 (unknown origin) assessed as residual activity at 1 uM by Kinomescan method relative to control
# Chain of MAP kinase-interacting serine/threonine-protein kinase 1 (Homo sapiens) (Q9BUB5 whole entry, looked up, the tested form may be a part): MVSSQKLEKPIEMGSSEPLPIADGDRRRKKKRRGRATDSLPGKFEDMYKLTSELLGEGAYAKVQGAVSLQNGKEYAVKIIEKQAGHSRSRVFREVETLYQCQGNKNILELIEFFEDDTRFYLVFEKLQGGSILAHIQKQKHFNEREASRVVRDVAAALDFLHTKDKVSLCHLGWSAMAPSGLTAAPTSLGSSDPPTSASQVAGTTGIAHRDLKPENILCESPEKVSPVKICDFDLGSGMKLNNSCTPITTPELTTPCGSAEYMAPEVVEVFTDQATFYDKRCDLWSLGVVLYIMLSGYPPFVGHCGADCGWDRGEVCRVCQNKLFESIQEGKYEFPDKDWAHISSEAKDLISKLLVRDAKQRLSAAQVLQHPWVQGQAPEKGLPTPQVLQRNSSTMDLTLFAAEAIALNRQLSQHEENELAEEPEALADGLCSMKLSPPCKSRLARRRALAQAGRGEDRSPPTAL
# [9] = target: Serine/threonine-protein kinase B-raf (Homo sapiens) (UniProt P15056); experiment: Inhibition of wild type human BRAF (S429 to E741 residues) expressed in bacterial expression system assessed as residual activity at 1 uM by Kinomescan method relative to control
# [10] = In vivo inhibition of LRRK2 in Han-Wistar rat assessed as reduction in Ser935 phosphorylation in lung at 10 to 100 mg/kg, po by Western blot analysis; assay type: functional; set-up: scale not given: the % may be the effect or the level left; conditions: dose 10-100 mg/kg
# [11] = target: Mitogen-activated protein kinase kinase kinase kinase 5 (Homo sapiens) (UniProt Q9Y4K4); experiment: Inhibition of wild-type human partial length MAP4K5 (M1 to P297 residues) expressed in bacterial expression system assessed as residual activity at 1 uM by Kinomescan method relative to control
# Chain of Mitogen-activated protein kinase kinase kinase kinase 5 (Homo sapiens) (Q9Y4K4 whole entry, looked up, the tested form may be a part): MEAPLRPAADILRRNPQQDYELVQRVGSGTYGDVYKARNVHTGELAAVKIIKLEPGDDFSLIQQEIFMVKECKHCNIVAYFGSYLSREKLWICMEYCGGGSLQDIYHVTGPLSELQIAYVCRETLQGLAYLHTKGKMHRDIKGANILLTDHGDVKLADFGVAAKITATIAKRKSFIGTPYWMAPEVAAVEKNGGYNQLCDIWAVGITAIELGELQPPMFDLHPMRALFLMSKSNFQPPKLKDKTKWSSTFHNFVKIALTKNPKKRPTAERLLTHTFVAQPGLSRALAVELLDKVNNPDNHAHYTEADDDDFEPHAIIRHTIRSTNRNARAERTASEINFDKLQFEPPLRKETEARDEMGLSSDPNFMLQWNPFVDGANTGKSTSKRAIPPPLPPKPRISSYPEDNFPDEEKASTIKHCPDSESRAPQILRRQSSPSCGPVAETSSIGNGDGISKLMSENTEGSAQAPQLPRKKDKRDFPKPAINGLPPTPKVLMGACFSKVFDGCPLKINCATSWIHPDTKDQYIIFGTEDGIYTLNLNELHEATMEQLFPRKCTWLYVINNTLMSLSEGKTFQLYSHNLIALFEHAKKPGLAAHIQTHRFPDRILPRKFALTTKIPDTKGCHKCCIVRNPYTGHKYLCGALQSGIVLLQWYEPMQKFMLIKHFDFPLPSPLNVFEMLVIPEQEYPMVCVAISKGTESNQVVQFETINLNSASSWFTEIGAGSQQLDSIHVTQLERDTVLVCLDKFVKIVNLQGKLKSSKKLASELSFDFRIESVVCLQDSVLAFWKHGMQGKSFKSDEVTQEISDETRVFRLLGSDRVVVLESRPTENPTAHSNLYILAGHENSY
# [12] = target: Mitogen-activated protein kinase kinase kinase 3 (Homo sapiens) (UniProt Q99759); experiment: Inhibition of MEKK3 (unknown origin) assessed as residual activity at 1 uM by Kinomescan method relative to control
# [13] = target: Mitogen-activated protein kinase kinase kinase kinase 1 (Homo sapiens) (UniProt Q92918); experiment: Inhibition of wild-type human full length HPK1 (M1 to R799 residues) expressed in bacterial expression system assessed as residual activity at 1 uM by Kinomescan method relative to control
# [14] = target: Dual specificity protein kinase CLK3 (Homo sapiens) (UniProt P49761); experiment: Inhibition of wild-type human full length CLK3 (M1 to R490 residues) expressed in bacterial expression system assessed as residual activity at 1 uM by Kinomescan method relative to control
# Chain of Dual specificity protein kinase CLK3 (Homo sapiens) (P49761 whole entry, looked up, the tested form may be a part): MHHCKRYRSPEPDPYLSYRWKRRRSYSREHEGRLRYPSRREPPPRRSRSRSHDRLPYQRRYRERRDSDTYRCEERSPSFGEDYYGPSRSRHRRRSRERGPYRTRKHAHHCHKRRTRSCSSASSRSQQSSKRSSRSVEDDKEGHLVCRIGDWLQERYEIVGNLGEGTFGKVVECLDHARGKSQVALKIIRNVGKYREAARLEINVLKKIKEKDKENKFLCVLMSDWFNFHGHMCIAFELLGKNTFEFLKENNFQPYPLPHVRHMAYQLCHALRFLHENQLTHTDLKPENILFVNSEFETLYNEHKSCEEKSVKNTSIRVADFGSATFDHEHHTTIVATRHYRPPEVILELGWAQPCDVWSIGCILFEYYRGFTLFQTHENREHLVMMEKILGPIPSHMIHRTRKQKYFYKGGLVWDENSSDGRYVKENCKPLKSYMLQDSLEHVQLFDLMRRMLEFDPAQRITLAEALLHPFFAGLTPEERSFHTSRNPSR
# [15] = target: Homeodomain-interacting protein kinase 2 (Homo sapiens) (UniProt Q9H2X6); experiment: Inhibition of wild-type human partial length HIPK2 (M153 to S564 residues) expressed in mammalian expression system assessed as residual activity at 1 uM by Kinomescan method relative to control
# [16] = target: Serine/threonine-protein kinase 32C (Homo sapiens) (UniProt Q86UX6); experiment: Inhibition of wild-type human partial length YANK3 (M68 to G486 residues) expressed in bacterial expression system assessed as residual activity at 1 uM by Kinomescan method relative to control
# [17] = target: Protein kinase C theta type (Homo sapiens) (UniProt Q04759); experiment: Inhibition of PKCtheta (unknown origin) assessed as residual activity at 1 uM by Kinomescan method relative to control
# [18] = target: RAC-gamma serine/threonine-protein kinase (Homo sapiens) (UniProt Q9Y243); experiment: Inhibition of wild-type human partial length AKT3 expressed in bacterial expression system assessed as residual activity at 1 uM by Kinomescan method relative to control
# [19] = target: Dual specificity mitogen-activated protein kinase kinase 4 (Homo sapiens) (UniProt P45985); experiment: Inhibition of MKK4 (unknown origin) assessed as residual activity at 1 uM by Kinomescan method relative to control
# [20] = target: Solute carrier organic anion transporter family member 1B1 (Homo sapiens, UniProt Q9Y6L6); experiment: Inhibition of human OATP1B1
# Chain of Solute carrier organic anion transporter family member 1B1 (Q9Y6L6 whole entry, the tested form may be a part): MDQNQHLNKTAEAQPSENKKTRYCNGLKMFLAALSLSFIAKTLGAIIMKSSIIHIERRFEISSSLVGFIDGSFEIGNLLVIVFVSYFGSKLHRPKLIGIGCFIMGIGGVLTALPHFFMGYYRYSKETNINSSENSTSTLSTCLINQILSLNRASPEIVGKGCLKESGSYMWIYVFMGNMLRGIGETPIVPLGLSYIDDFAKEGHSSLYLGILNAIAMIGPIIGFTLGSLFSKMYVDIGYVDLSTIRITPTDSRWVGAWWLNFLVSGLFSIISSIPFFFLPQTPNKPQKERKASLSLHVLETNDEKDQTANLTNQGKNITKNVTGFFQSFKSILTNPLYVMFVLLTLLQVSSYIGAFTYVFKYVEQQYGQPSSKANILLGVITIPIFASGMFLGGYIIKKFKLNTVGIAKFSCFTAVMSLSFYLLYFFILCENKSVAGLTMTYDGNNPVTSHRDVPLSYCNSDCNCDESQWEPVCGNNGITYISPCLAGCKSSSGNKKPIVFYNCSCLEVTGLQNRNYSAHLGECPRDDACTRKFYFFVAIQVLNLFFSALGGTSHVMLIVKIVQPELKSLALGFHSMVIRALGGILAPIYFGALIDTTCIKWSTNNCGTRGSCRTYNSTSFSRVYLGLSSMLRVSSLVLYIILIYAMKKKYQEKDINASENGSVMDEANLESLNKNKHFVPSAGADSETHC
# [21] = target: Serine/threonine-protein kinase 26 (Homo sapiens) (UniProt Q9P289); experiment: Inhibition of wild-type human full length MST4 (M1 to P416 residues) expressed in mammalian expression system assessed as residual activity at 1 uM by Kinomescan method relative to control
# [22] = target: Leucine-rich repeat serine/threonine-protein kinase 2 (Homo sapiens, UniProt Q5S007); experiment: Inhibition of wild-type human partial length LRRK2 (H970 to E2527 residues) expressed in mammalian expression system assessed as residual activity at 1 uM by Kinomescan method relative to control
# [23] = target: CDK2/Cyclin A1 (Homo sapiens) (UniProt P24941+P78396); experiment: Inhibition of CDK2/Cyclin A1 (unknown origin) assessed as residual activity at 1 uM by Kinomescan method relative to control; assay type: protein-complex assay
# [24] = Lipophilicity, logD of compound at pH 7.4; conditions: buffer
# [25] = target: Ephrin type-A receptor 8 (Homo sapiens) (UniProt P29322); experiment: Inhibition of human wild type partial length EPHA8 (Q608 to C920 residues) expressed in bacterial expression system assessed as residual activity at 1 uM by Kinomescan method relative to control
# Chain of Ephrin type-A receptor 8 (Homo sapiens) (P29322 whole entry, the tested form may be a part): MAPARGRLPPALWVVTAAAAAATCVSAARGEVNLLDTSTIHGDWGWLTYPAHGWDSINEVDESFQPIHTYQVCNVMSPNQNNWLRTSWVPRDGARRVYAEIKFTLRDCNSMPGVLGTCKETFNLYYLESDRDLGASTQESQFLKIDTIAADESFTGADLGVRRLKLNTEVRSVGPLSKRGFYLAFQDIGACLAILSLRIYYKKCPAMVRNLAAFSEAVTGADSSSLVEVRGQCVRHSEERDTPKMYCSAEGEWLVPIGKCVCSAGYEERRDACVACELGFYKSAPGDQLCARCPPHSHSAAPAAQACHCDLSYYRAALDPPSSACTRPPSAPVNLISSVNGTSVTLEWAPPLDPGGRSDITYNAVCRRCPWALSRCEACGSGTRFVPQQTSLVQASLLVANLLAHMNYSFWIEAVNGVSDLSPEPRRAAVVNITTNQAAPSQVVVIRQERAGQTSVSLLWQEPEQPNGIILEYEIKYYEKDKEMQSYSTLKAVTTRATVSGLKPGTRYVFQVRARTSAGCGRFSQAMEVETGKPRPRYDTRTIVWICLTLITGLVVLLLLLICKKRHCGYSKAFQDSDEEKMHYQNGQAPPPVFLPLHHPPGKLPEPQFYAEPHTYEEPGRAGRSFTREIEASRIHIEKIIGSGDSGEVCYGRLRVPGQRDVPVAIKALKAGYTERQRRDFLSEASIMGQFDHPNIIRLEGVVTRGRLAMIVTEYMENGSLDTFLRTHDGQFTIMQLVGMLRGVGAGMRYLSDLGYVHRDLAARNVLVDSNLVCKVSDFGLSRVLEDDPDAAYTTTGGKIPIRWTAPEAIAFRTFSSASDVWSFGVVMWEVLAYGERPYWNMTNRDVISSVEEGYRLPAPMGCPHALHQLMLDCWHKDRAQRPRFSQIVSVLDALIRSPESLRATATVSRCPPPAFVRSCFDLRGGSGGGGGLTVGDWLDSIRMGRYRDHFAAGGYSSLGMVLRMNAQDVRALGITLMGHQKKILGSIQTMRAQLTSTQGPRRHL
# [26] = target: Bone morphogenetic protein receptor type-2 (Homo sapiens) (UniProt Q13873); experiment: Inhibition of wild-type human partial length BMPR2 (R179 to Q526 residues) expressed in mammalian expression system assessed as residual activity at 1 uM by Kinomescan method relative to control
# [27] = In vivo inhibition of LRRK2 in C57BL6 mouse assessed as reduction in Ser935 phosphorylation in lung at 45 mg/kg, po after 1 hr by Western blot analysis; assay type: functional; set-up: scale not given: the % may be the effect or the level left
# [28] = target: Tyrosine-protein kinase ZAP-70 (Homo sapiens) (UniProt P43403); experiment: Inhibition of wild-type human partial length ZAP70 (D20 to G299 residues) expressed in mammalian expression system assessed as residual activity at 1 uM by Kinomescan method relative to control
smiles,measurement,setting,value
CCOc1nc(Nc2ccc(C(=O)N3CCOCC3)cc2OC)nc2[nH]ccc12,Activity,[1],96.8%
same,Activity,[2],99.9%
same,Activity,[3],95.3%
same,Activity,[4],98.4%
same,Activity,[5],96.4%
same,Activity,[6],80%
same,Activity,[7],98.8%
same,Activity,[8],98.7%
same,Activity,[9],88%
same,Activity,[10],100%
same,Activity,[11],101%
same,Activity,[12],97%
same,Activity,[13],86.6%
same,Activity,[14],90.1%
same,Activity,[15],100%
same,Activity,[16],107%
same,Activity,[17],83.7%
same,Activity,[18],98.8%
same,Activity,[19],107%
same,IC50,[20],12.6 µM
same,Activity,[21],88.4%
same,Activity,[22],0.91%
same,Activity,[23],74%
same,logD,[24],4.5
same,Activity,[25],94.4%
same,Activity,[26],72.2%
same,Activity,[27],80%
same,Activity,[28],124%

# From ChEMBL document CHEMBL4715821, “Discovery of 4-ethoxy-7H-pyrrolo[2,3-d]pyrimidin-2-amines as potent, selective and orally bioavailable LRRK2 inhibitors” (Bioorg Med Chem Lett, 2018)
